For assay [1], the target named is T1, recombinant human ROCK2 (amino acids 1-530, aminoterminal 6×His tag) (Homo sapiens, UniProt O75116).
T1 construct: recombinant human ROCK2 (amino acids 1-530, aminoterminal 6×His tag); 6xHis (N)
The assay can be described thus: Determination of ROCK kinase activity, IMAP assay, ROCK2 human. Conditions: for IC50: in vitro kinase assay, ATP 34.8 μM; for inhibition at 10 µM: % inhibition of the protein kinase ROCK2 at a concentration of 10 μM. The assay is classed as biochemical. How it is done: (§1) Determination of ROCK Kinase Activity
(§2) IC50 values for the various compounds were determined with recombinant human ROCK1 (amino acids 1-555, aminoterminal 6×His tag) and recombinant human ROCK2 (amino acids 1-530, aminoterminal 6×His tag) under the following reaction conditions:
• 11) Add 6 μl 8/6 fold concentrated Substrate+8/6 fold concentrated ATP in 1 fold concentrated Reaction Buffer to each well of Assay Plate • 12) Add 10.8 nl 740 fold concentrated Inhibitor in 100% DMSO to each well except to C− and C+ wells using pintool • 13) Add 10.8 nl 100% DMSO to C− and C+ wells using pintool • 14) Add 2 μl Reaction Buffer to C− wells • 15) Add 2 μl 4 fold concentrated Kinase in Reaction Buffer to each well except C− wells • 16) Incubate according to Reaction Time at room temperature • 17) Add 15 μl IMAP Binding Solution to each well • 18) Incubate according to IMAP Incubation Time at room temperature • 19) Measure Fluorescence Polarization • 20) Measure Fluorescence Intensity

Assay [2] concerns the target T2, recombinant human ROCK1 (amino acids 1-555, aminoterminal 6×His tag) (Homo sapiens, UniProt Q13464).
T2 construct: recombinant human ROCK1 (amino acids 1-555, aminoterminal 6×His tag); 6xHis (N)
Kind of assay: Determination of ROCK kinase activity, IMAP assay, ROCK1 human. It is filed as biochemical. As to conditions: in vitro kinase assay, ATP 38.9 μM. How it is done: as §1, §2
• 1) Add 6 μl 8/6 fold concentrated Substrate+8/6 fold concentrated ATP in 1 fold concentrated Reaction Buffer to each well of Assay Plate • 2) Add 10.8 nl 740 fold concentrated Inhibitor in 100% DMSO to each well except to C− and C+ wells using pintool • 3) Add 10.8 nl 100% DMSO to C− and C+ wells using pintool • 4) Add 2 μl Reaction Buffer to C− wells • 5) Add 2 μl 4 fold concentrated Kinase in Reaction Buffer to each well except C− wells • 6) Incubate according to Reaction Time at room temperature • 7) Add 15 μl IMAP Binding Solution to each well • 8) Incubate according to IMAP Incubation Time at room temperature • 9) Measure Fluorescence Polarization • 10) Measure Fluorescence Intensity

T2 sequence (Q13464 1-555): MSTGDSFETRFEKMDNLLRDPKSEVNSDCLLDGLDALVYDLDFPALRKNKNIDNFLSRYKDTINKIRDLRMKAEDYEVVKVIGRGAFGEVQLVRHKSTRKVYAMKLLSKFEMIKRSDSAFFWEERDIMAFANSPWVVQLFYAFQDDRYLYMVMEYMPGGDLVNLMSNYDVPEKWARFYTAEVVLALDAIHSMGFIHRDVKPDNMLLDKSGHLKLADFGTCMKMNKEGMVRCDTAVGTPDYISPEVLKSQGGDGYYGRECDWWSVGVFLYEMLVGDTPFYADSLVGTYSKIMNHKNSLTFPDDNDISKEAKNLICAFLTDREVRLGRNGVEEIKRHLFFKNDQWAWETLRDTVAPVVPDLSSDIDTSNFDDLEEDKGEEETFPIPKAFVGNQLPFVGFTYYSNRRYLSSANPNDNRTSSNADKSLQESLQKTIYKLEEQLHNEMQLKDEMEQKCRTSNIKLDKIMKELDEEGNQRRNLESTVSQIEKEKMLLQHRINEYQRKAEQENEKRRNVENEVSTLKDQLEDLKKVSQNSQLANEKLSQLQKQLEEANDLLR
T1 sequence (O75116 1-530): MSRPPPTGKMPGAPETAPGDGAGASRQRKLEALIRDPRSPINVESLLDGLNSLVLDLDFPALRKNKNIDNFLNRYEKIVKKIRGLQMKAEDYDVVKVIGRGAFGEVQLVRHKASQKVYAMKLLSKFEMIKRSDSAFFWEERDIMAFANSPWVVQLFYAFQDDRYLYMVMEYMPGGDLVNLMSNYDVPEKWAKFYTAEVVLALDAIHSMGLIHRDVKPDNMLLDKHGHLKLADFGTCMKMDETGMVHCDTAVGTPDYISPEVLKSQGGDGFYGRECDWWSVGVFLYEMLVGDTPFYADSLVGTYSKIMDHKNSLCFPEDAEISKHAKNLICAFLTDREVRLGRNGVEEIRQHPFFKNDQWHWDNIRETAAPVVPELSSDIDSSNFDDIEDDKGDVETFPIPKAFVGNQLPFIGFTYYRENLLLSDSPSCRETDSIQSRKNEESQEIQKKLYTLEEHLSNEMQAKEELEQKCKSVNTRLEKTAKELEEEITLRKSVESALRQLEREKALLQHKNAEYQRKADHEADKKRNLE

For `C[C@@H](NC(=O)c1ccc2cnccc2n1)c1ccc(Cl)cc1` [(R)-[1,6]Naphthyridine-2-carboxylic acid 1-(4-chloro-phenyl)-ethylamide], the IC50 (as a rule, the concentration that inhibits the measured activity by half) in assay [1] was 360 nM.

As to `Cc1ccc([C@@H](C)NC(=O)c2ccc3cnccc3n2)cc1` [(R)-[1,6]Naphthyridine-2-carboxylic acid 1-(4-methylphenyl)-ethylamide], the half-inhibitory concentration (IC50) in assay [1] came to 410 nM.

Turning to `C[C@@H](NC(=O)c1ccc2cnccc2n1)c1ccc2ccccc2c1` [(R)-[1,6]Naphthyridine-2-carboxylic acid 1-(naphth-2-yl)-ethylamide], the IC50 in assay [2] was 2320 nM; in assay [1] it was 880 nM.

As to `CC[C@@H](NC(=O)c1ccc2cnccc2n1)c1ccccc1` [(R)-[1,6]Naphthyridine-2-carboxylic acid 1-phenyl-propylamide], in assay [1], the IC50 came to 160 nM.

For `NC(=O)[C@H](Cc1ccccc1)NC(=O)c1ccc2cnccc2n1` [(S)-[1,6]Naphthyridine-2-carboxylic acid (1-carbamoyl-2-phenyl-ethyl)-amide], the IC50 in assay [2] amounted to 8160 nM; in assay [1], 5640 nM.

Take `NC(=O)[C@H](Cc1ccc(O)cc1)NC(=O)c1ccc2cnccc2n1` [(S)-[1,6]Naphthyridine-2-carboxylic acid [1-carbamoyl-2-(4-hydroxy-phenyl)-ethyl]-amide]: the IC50 stood at 6830 nM in assay [2] and 4260 nM in assay [1].

Take `O=C(NCc1cccc(Br)c1)c1ccc2cnccc2n1` [Compound 1, [1,6]Naphthyridine-2-carboxylic acid 3-bromo-benzylamide]: the IC50 in assay [2] came out at 910 nM. For the same molecule, in assay [1], the inhibition (usually the relative decrease from the control value, in per cent) at 10 µM was 87% and the IC50 worked out at 1040 nM.

Take `O=C(NCc1ccccc1F)c1ccc2cnccc2n1` [Compound 2, [1,6]Naphthyridine-2-carboxylic acid 2-fluoro-benzylamide]: the half-inhibitory concentration (IC50) stood at 790 nM in assay [2] and 2080 nM in assay [1].

For the molecule `O=C(NCc1ccc(Br)cc1)c1ccc2cnccc2n1` [Compound 3, [1,6]Naphthyridine-2-carboxylic acid 4-bromo-benzylamide], the values for the IC50 in assay [2] and in assay [1] were 1370 nM and 1330 nM, respectively.

In the case of `CC(NC(=O)c1ccc2cnccc2n1)c1ccccc1` (stereo not drawn) [Compound 4, [1,6]Naphthyridine-2-carboxylic acid (1-phenyl-ethyl)-amide], the IC50 in assay [2] was 710 nM. Moreover, in assay [1], the inhibition at 10 µM came out at 81% and the 50% inhibitory concentration (IC50) amounted to 1590 nM.

Turning to `NC(=O)C(Cc1ccccc1)NC(=O)c1ccc2cnccc2n1` (stereo not drawn) [Compound 5, [1,6]Naphthyridine-2-carboxylic acid (1-carbamoyl-2-phenyl-ethyl)-amide], the inhibition at 10 µM in assay [1] turned out to be 62%.

On to `NC(=O)C(Cc1ccc(Cl)cc1)NC(=O)c1ccc2cnccc2n1` (stereo not drawn) [Compound 6, [1,6]Naphthyridine-2-carboxylic acid [1-carbamoyl-2-(4-chloro-phenyl)-ethyl]-amide], for which the inhibition at 10 µM in assay [1] is 65%.

Consider `C[C@@H](NC(=O)c1ccc2cnccc2n1)c1ccccc1` [Compound 7, [1,6]Naphthyridine-2-carboxylic acid ((R)-1-phenyl-ethyl)-amide], for which, in assay [2], the 50% inhibitory concentration (IC50) was determined as 1130 nM. In assay [1], the inhibition at 10 µM is 88% and the IC50 was determined as 920 nM.

In the case of `C[C@H](NC(=O)c1ccc2cnccc2n1)c1ccccc1` [Compound 8, [1,6]Naphthyridine-2-carboxylic acid ((S)-1-phenyl-ethyl)-amide], the inhibition at 10 µM in assay [1] came out at 37%.

Consider `CCC(NC(=O)c1ccc2cnccc2n1)c1cccc(Cl)c1` (stereo not drawn) [[1,6]Naphthyridine-2-carboxylic acid 1-(3-chlorophenyl)-propylamide], for which the figures for the concentration for half-maximal inhibition (IC50) in assay [2] and in assay [1] were 300 nM and 380 nM, respectively.

`CC(NC(=O)c1ccc2cnccc2n1)c1ccc(Br)cc1` (stereo not drawn) [[1,6]Naphthyridine-2-carboxylic acid 1-(4-bromo-phenyl)-ethylamide]: the half-maximal inhibitory concentration (IC50) in assay [2] came to 970 nM; in assay [1], 890 nM.

Consider `CC(NC(=O)c1ccc2cnccc2n1)c1ccc(Cl)cc1` (stereo not drawn) [[1,6]Naphthyridine-2-carboxylic acid 1-(4-chlorophenyl)-ethylamide], for which the half-maximal inhibitory concentration (IC50) came to 1100 nM in assay [2] and 770 nM in assay [1].

Turning to `CCC(NC(=O)c1ccc2cnccc2n1)c1ccc(Cl)cc1` (stereo not drawn) [[1,6]Naphthyridine-2-carboxylic acid 1-(4-chlorophenyl)-propylamide], the IC50 in assay [2] was 1260 nM; in assay [1] it was 480 nM.

`CC(NC(=O)c1ccc2cnccc2n1)c1ccc(F)cc1` (stereo not drawn) [[1,6]Naphthyridine-2-carboxylic acid 1-(4-fluorophenyl)-ethylamide]: the IC50 came to 940 nM in assay [2] and 340 nM in assay [1].

As for `COc1ccc(C(C)NC(=O)c2ccc3cnccc3n2)cc1` (stereo not drawn) [[1,6]Naphthyridine-2-carboxylic acid 1-(4-methoxyphenyl)-ethylamide], in assay [1], the IC50 worked out at 10700 nM.

With `Cc1ccc(C(C)NC(=O)c2ccc3cnccc3n2)cc1` (stereo not drawn) [[1,6]Naphthyridine-2-carboxylic acid 1-(4-methylphenyl)-ethylamide], the values for the concentration for half-maximal inhibition (IC50) in assay [2] and in assay [1] were 1290 nM and 1410 nM, respectively.

Regarding `CCC(NC(=O)c1ccc2cnccc2n1)c1ccc(C)cc1` (stereo not drawn) [[1,6]Naphthyridine-2-carboxylic acid 1-(4-methylphenyl)-propylamide], the IC50 was 790 nM in assay [2] and 1260 nM in assay [1].

In the case of `CCC(NC(=O)c1ccc2cnccc2n1)c1cccs1` (stereo not drawn) [[1,6]Naphthyridine-2-carboxylic acid 1-(thiophen-2-yl)-propylamide], in assay [1], the IC50 came out at 1010 nM.

For the molecule `CC(NC(=O)c1ccc2cnccc2n1)c1ccsc1` (stereo not drawn) [[1,6]Naphthyridine-2-carboxylic acid 1-(thiophen-3-yl)-ethylamide], the half-maximal inhibitory concentration (IC50) in assay [1] is 1910 nM.

With `CCC(NC(=O)c1ccc2cnccc2n1)c1ccccc1` (stereo not drawn) [[1,6]Naphthyridine-2-carboxylic acid 1-phenyl-propylamide], the concentration for half-maximal inhibition (IC50) in assay [2] came out at 660 nM; in assay [1] it was 500 nM.

Turning to `O=C(NCCc1ccc(Br)cc1)c1ccc2cnccc2n1` [[1,6]Naphthyridine-2-carboxylic acid 2-(4-bromo-phenyl)-ethylamide], the IC50 in assay [2] stood at 1500 nM; in assay [1], 1520 nM.

`O=C(NCCc1ccc(Cl)cc1)c1ccc2cnccc2n1` [[1,6]Naphthyridine-2-carboxylic acid 2-(4-chloro-phenyl)-ethylamide]: the figures for the IC50 in assay [2] and in assay [1] were 1910 nM and 5700 nM, respectively.

As to `O=C(NCc1ccccc1Br)c1ccc2cnccc2n1` [[1,6]Naphthyridine-2-carboxylic acid 2-bromo-benzylamide], the IC50 was determined as 2240 nM in assay [2] and 7230 nM in assay [1].

As for `O=C(NCc1ccccc1Cl)c1ccc2cnccc2n1` [[1,6]Naphthyridine-2-carboxylic acid 2-chloro-benzylamide], the IC50 in assay [2] amounted to 4770 nM; in assay [1] it was 3830 nM.

Consider `CCOc1ccccc1CNC(=O)c1ccc2cnccc2n1` [[1,6]Naphthyridine-2-carboxylic acid 2-ethoxy-benzylamide], for which, in assay [1], the IC50 was found to be 13000 nM.

For `O=C(NCc1cccc(Cl)c1)c1ccc2cnccc2n1` [[1,6]Naphthyridine-2-carboxylic acid 3-chloro-benzylamide], the half-inhibitory concentration (IC50) was 610 nM in assay [2] and 2570 nM in assay [1].

As for `COc1cccc(CNC(=O)c2ccc3cnccc3n2)c1` [[1,6]Naphthyridine-2-carboxylic acid 3-methoxy-benzylamide], the figures for the 50% inhibitory concentration (IC50) in assay [2] and in assay [1] were 3340 nM and 3100 nM, respectively.

With `O=C(NCc1ccc(Cl)cc1)c1ccc2cnccc2n1` [[1,6]Naphthyridine-2-carboxylic acid 4-chloro-benzylamide], the half-inhibitory concentration (IC50) in assay [2] was 2050 nM; in assay [1], 2110 nM.

Turning to `COc1ccc(CNC(=O)c2ccc3cnccc3n2)cc1` [[1,6]Naphthyridine-2-carboxylic acid 4-methoxy-benzylamide], the concentration for half-maximal inhibition (IC50) stood at 6040 nM in assay [2] and 5120 nM in assay [1].

Turning to `Cc1ccc(CNC(=O)c2ccc3cnccc3n2)cc1` [[1,6]Naphthyridine-2-carboxylic acid 4-methyl-benzylamide], the 50% inhibitory concentration (IC50) was 1280 nM in assay [2] and 2230 nM in assay [1].

With `O=C(NCc1ccc2c(c1)OCO2)c1ccc2cnccc2n1` [[1,6]Naphthyridine-2-carboxylic acid (benzo[1,3]dioxol-5-ylmethyl)-amide], the IC50 in assay [2] came to 1460 nM; in assay [1], 1870 nM.

`O=C(NCc1ccccc1)c1ccc2cnccc2n1` [[1,6]Naphthyridine-2-carboxylic acid benzylamide]: the figures for the concentration for half-maximal inhibition (IC50) in assay [2] and in assay [1] were 3150 nM and 7680 nM, respectively.

Turning to `O=C(NCc1cccs1)c1ccc2cnccc2n1` [[1,6]Naphthyridine-2-carboxylic acid thiophen-2-yl-methylamide], the figures for the IC50 in assay [2] and in assay [1] were 1970 nM and 7840 nM, respectively.

These data come from patent US20080207677A1, “Napthyridine Compounds As Rock Inhibitors” (GPC BIOTECH AG, priority 2004, published 2008).
